Laboratory results taken from US11617753B2 (priority 2016, dated 2023).
Where a name gives a salt, the structure may show the parent alone. Read-outs that look alike come from different tables or passages of the source.

Assays:
Ebola L polymerase [1] = target: T1, Ebola L polymerase (Zaire ebolavirus, UniProt Q05318); type: cell-based, Ebola virus; conditions: 15 μM
Ebola VP40 protein [2] = target: T2, Ebola VP40 protein (Zaire ebolavirus, UniProt Q05128); type: cell-based, Ebola virus
Ebola L polymerase [3] = target: T1, Ebola L polymerase; experiment: cell-based; set-up: species or system Ebola virus
EBOV-Mak = experiment: microbe, parasite or virus in culture; type: cell-based; conditions: Zaire ebolavirus, Huh-7, read-out: IC50, inhibition of Ebola infectivity
Huh7 cells = conditions: human
Ebola VP40 protein [4] = target: T2, Ebola VP40 protein; type: cell-based, Ebola virus; remark: listed apart in the source

T1 sequence (Q05318 whole entry, looked up): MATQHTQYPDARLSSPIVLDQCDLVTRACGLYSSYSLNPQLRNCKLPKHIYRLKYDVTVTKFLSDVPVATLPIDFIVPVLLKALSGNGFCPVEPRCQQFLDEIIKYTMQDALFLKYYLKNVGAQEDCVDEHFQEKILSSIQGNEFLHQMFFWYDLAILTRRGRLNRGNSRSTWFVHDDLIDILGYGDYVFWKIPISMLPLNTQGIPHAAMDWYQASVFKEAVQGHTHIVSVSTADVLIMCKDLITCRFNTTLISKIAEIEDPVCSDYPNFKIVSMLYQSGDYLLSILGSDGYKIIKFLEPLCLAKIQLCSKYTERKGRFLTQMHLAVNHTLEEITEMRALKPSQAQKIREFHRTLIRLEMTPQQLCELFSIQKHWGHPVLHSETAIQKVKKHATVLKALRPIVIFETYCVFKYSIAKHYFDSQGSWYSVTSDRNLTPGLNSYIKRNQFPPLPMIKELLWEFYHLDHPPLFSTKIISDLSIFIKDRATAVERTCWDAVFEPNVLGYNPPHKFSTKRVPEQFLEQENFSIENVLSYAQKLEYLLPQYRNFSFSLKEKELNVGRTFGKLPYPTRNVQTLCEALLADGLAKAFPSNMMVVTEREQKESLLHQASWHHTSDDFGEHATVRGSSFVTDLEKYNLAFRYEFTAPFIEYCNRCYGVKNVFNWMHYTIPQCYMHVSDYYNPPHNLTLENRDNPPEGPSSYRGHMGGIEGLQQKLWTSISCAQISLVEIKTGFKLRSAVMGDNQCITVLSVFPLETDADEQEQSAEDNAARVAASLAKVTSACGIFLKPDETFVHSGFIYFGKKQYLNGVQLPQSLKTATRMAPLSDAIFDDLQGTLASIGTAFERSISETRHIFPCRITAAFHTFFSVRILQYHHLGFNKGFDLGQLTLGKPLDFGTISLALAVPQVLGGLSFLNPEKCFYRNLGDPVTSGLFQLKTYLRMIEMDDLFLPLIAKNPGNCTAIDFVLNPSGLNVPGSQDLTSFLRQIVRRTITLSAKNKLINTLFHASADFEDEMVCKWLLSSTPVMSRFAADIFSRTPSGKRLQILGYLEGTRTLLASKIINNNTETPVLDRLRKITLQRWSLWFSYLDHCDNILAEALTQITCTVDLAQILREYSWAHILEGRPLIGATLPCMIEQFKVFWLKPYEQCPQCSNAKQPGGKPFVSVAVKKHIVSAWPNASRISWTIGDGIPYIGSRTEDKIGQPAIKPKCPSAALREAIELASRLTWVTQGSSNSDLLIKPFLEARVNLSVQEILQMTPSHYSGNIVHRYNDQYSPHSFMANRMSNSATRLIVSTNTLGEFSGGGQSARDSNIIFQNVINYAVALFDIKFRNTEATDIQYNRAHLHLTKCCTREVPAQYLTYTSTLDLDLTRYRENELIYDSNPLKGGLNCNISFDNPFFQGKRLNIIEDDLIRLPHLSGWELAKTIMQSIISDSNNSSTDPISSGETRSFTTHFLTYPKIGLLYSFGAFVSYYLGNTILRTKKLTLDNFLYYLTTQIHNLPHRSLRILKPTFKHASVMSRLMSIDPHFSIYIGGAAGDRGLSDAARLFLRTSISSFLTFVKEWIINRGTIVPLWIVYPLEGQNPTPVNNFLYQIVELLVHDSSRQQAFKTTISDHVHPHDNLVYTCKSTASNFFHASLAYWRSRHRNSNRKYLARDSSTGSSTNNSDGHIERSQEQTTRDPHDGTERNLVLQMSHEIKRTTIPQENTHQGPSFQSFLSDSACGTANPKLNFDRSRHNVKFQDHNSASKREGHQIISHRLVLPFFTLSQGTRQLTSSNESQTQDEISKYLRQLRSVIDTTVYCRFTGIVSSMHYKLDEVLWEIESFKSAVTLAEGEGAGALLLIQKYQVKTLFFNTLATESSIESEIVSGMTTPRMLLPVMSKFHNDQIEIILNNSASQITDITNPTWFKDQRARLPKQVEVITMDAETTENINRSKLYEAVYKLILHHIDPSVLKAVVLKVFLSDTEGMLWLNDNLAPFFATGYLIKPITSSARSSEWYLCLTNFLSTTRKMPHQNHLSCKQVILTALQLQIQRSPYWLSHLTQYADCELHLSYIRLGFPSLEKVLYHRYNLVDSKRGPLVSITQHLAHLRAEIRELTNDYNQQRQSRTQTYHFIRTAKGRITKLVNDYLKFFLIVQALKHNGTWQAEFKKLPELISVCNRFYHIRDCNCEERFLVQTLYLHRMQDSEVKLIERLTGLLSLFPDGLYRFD
T2 sequence (Q05128 whole entry, looked up): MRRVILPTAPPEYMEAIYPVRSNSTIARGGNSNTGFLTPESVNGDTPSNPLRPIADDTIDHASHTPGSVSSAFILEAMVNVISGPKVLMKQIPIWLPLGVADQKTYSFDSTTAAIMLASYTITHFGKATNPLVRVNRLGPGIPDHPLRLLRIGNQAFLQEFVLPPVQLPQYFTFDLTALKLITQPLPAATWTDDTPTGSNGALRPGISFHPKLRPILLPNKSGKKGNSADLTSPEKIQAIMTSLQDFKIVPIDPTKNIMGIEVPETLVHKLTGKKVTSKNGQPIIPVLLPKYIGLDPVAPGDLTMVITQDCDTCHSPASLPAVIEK

NC(=O)c1cn([C@@H]2O[C@H](CO)[C@@H](O)[C@H]2O)c2ncnc(N)c12 [sangivamycin HCl, 4-amino-7-((2R,3R,4S,5R)-3,4-dihydroxy-5-(hydroxymethyl)tetrahydrofuran-2-yl)-7H-pyrrolo[2,3-d]pyrimidine-5-carboxamide (sangivamycin) hydrochloride]
% EGFP signal (Ebola L polymerase [1]; hydrochloride): 20% | % mCherry signal (Ebola L polymerase [1]; hydrochloride): 10%

NC(=O)c1cn([C@@H]2O[C@H](CO)[C@@H](O)[C@H]2O)c2ncnc(N)c12 [sangivamycin, 4-amino-7-((2R,3R,4S,5R)-3,4-dihydroxy-5-(hydroxymethyl)tetrahydrofuran-2-yl)-7H-pyrrolo[2,3-d]pyrimidine-5-carboxamide]
% EGFP signal (Ebola L polymerase [1]): 27% | % mCherry signal (Ebola L polymerase [1]): 4% | VLP isolated (western blot for VP40) (Ebola VP40 protein [2]; 50 nM): clear reduction in VLP | VLP isolated (western blot for VP40) (Ebola VP40 protein [2]; 500 nM): drastic reduction in VLP | IC50 (Ebola L polymerase [3]): 0.03 µM | IC50 (EBOV-Mak): ~0.1 µM | 50% cytotoxicity concentration (Huh7 cells): > 600 nM | EGFP fluorescent signal, % of solvent control signal, dose-response (Ebola VP40 protein [4]): largest decrease in signal | concentration at which VLP formation in the cell is prevented (shift in membrane associated VP40) (Ebola VP40 protein [4]): above 37.5 nM
